From PubChem BioAssay (NCI) come the findings set out here.

Some test systems named below: CAKI-1 renal; DU-145 prostate; NCI-H23 lung; OVCAR-3 ovarian; IGROV1 ovarian; M14 melanoma; MOLT-4 leukemia; OVCAR-5 ovarian; RPMI-8226 leukemia; UO-31 renal.
Common to all, as to assay: NCI anticancer screen, dose series, 48 h

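Cultured in 96-well plates, cells were exposed to test compound for 48 hours across five concentrations. At the GI50, growth is halved. TGI: concentration producing complete growth inhibition.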

Take `CCCCCCCCCCCCCCCc1ccc(C(=O)C[n+]2ccccc2)cc1`: the GI50 in the assay on CAKI-1 renal is 1.01 µM; in the assay on DU-145 prostate it was 1.2 µM; in the assay with NCI-H23 lung it was 0.502 µM; with OVCAR-3 ovarian it was 1.79 µM. Further, the TGI came to 3.45 µM with CAKI-1 renal, 2.44 µM in the assay with DU-145 prostate, 1.79 µM in the assay on NCI-H23 lung and 3.64 µM in the assay on OVCAR-3 ovarian.
With `NC(=O)OCc1c(O)c2c(c(O)c1COC(N)=O)C(=O)C=CC2=O`, the TGI in the assay on CAKI-1 renal, in the assay on IGROV1 ovarian, with M14 melanoma, in the assay on MOLT-4 leukemia, with NCI-H23 lung and in the assay on OVCAR-3 ovarian was over 100 µM in each case. The TGI with OVCAR-5 ovarian, in the assay with RPMI-8226 leukemia and in the assay on UO-31 renal was over 100 µM in each case.
`COc1ccc(C2C(Cl)C(=O)N2NC(=O)c2ccc(NC(C)=O)cc2)cc1OC` (configuration not stated): the TGI in the assay with IGROV1 ovarian, in the assay on MOLT-4 leukemia, with NCI-H23 lung, with OVCAR-3 ovarian, in the assay on OVCAR-5 ovarian and with RPMI-8226 leukemia was over 100 µM throughout. Moreover, in the assay on UO-31 renal, the TGI was over 100 µM.
For the compound `N=C(N)c1ccc(-c2ccc(-c3ccccc3)o2)cc1`, the GI50 was 2.78 µM in the assay with CAKI-1 renal; 2.72 µM in the assay on DU-145 prostate; 2 µM with IGROV1 ovarian; 1.77 µM with M14 melanoma; 3.37 µM in the assay with NCI-H23 lung; 3.3 µM in the assay on OVCAR-3 ovarian. Also, the figures for the GI50 with OVCAR-5 ovarian, in the assay with RPMI-8226 leukemia and with UO-31 renal were 2.11 µM, 2.75 µM and 1.79 µM, respectively. The TGI in the assay on CAKI-1 renal is 9.85 µM; in the assay with DU-145 prostate, 7.93 µM; with IGROV1 ovarian, 4.5 µM; in the assay on M14 melanoma, 3.66 µM; in the assay with NCI-H23 lung, 14.8 µM; in the assay on OVCAR-3 ovarian, 13.4 µM. The results for the TGI with OVCAR-5 ovarian, in the assay with RPMI-8226 leukemia and in the assay on UO-31 renal were 6.95 µM, 7.29 µM and 3.53 µM, respectively.
On to `O=C(Nc1ccc(-n2cc(-c3ccncc3)c(-c3ccc(O)c(Cl)c3)n2)cc1)c1ccc(Cl)c(Cl)c1`, for which the GI50 is 2.21 µM in the assay with CAKI-1 renal; 3.91 µM in the assay on DU-145 prostate; over 32.5 µM in the assay with IGROV1 ovarian; 0.668 µM in the assay on M14 melanoma; 1.37 µM in the assay on MOLT-4 leukemia; 2.18 µM in the assay on NCI-H23 lung. The GI50 is 2.11 µM in the assay with OVCAR-3 ovarian, over 32.5 µM with OVCAR-5 ovarian, 0.537 µM in the assay with RPMI-8226 leukemia and 1.8 µM in the assay with UO-31 renal. The TGI is over 32.5 µM with CAKI-1 renal; over 32.5 µM in the assay with DU-145 prostate; over 32.5 µM in the assay with IGROV1 ovarian; 1.52 µM in the assay on M14 melanoma; over 32.5 µM in the assay with MOLT-4 leukemia; over 32.5 µM in the assay with NCI-H23 lung. For the same compound, the TGI was over 32.5 µM with OVCAR-3 ovarian, over 32.5 µM with OVCAR-5 ovarian, 1.44 µM in the assay on RPMI-8226 leukemia and over 32.5 µM with UO-31 renal.
